The values below come from US4476128A, “2-Substituted thiazolyl-piperazine compounds, process for preparation thereof and utilizations thereof _” (Mitsuitoatsu Chemicals, Inc., priority 1980, dated 1984).

Experiment [1] has as its system Sarcoma 180. The experiment can be described thus: Test of Antitumor Effect to Sarcoma 180 by Subcutaneous Administration. The following applies: 20 mg/Kg subcutaneous; for N: number of living mice, 0 weeks / N: number of living mice, 2 weeks / N: number of living mice, 4 weeks / N: number of living mice, 6 weeks / N: number of living mice, 8 weeks / N: number of living mice, 10 weeks: group of 6. The format is in vivo, ICR female mice. On the procedure:
To the control group, a physiological saline was similarly administered. […] The diameter D (mm) of the tumor was measured, and the average value and the number N of the living mice were determined to obtain results shown in Table 4.

The subject of experiment [2] is Sarcoma 180. The experiment can be described thus: Test of Antitumor Effect to Sarcoma 180 by Oral Administration. To be noted: for D: average diameter (mm) of tumor, 2 weeks / D: average diameter (mm) of tumor, 4 weeks / D: average diameter (mm) of tumor, 6 weeks / D: average diameter (mm) of tumor, 8 weeks / D: average diameter (mm) of tumor, 10 weeks: 100 mg/Kg oral once a day, 10 days; for N: number of living mice, 0 weeks / N: number of living mice, 2 weeks / N: number of living mice, 4 weeks / N: number of living mice, 6 weeks / N: number of living mice, 8 weeks / N: number of living mice, 10 weeks: 100 mg/Kg oral, group of 6. In kind it is in vivo, ICR female mice. On the procedure:
To the control group, a physiological saline was similarly administered. The dose of the compound was 100 mg per Kg of the body weight. The diameter D (mm) of the tumor was measured, and the average value and the number N of the living mice were determined to obtain results shown in Table 4.

In experiment [3] the test system is adjuvant arthritis caused by Mycobacterium tuberculosis adjuvant. Nature of the experiment: Adjuvant Arthritis Test. In kind it is in vivo, SD male rats. To be noted: 5 mg/Kg subcutaneous, 9 times, left hind leg, * P<0.05, ** P<0.01. How it is done: The adjuvant arthritis in rats caused by injection of a Mycobacterium tuberculosis adjuvant is often utilized for a model test of chronic rheumatoid arthritis in men.
The mechanism of manifestation of this disease has not completely been elucidated, but it is known that the cellular immunity takes an important role. The immunopotentiative action of the compound of the present invention was tested according to this known adjuvant arthritis test.
A group of ten 9-weeks-old SD male rats were used for the test. In 0.1 ml of fluid paraffin, 0.4 mg of dry dead cells of Mycobacterium tuberculosis were suspended, and the suspension was injected under the heel skin of the right hind leg. The compound of the present invention was subcutaneously administered 9 times as a whole before and after injection of the adjuvant. The test compound was dissolved in a physiological saline and administered at a dose of 5 mg per Kg of the body weight. The swelling volume of the left hind leg as measured during the period of from the day of injection to the day of completion of the test, and the swelling ratio was calculated. For comparison, the test was similarly conducted by using Levamisole hydrochloride. F.t tests were carried out on the obtained test results. The group in which the test result was significant at a level of P<0.05 was marked by *, and the group in which the test result was significant at a level of P<0.01 was marked by **.

In the case of `CCN(CC)C(=O)N1CCN(c2nccs2)CC1` [drawing 17], in the experiment with Sarcoma 180 [1], the “N: number of living mice, 0 weeks” value is 6; the “D: average diameter (mm) of tumor, 2 weeks” value (“D: average diameter … 2 weeks” below) was determined as 4.9 mm; the “N: number of living mice, 2 weeks” value came out at 6; the “D: average diameter (mm) of tumor, 4 weeks” value (“D: average diameter … 4 weeks” for short) stood at 6.7 mm. Moreover, in the experiment with Sarcoma 180 [1], the “N: number of living mice, 4 weeks” value was 6; the “D: average diameter (mm) of tumor, 6 weeks” value (from here on “D: average diameter … 6 weeks”) was 9.6 mm; the “N: number of living mice, 6 weeks” value is 6; the “D: average diameter (mm) of tumor, 8 weeks” value (from here on “D: average diameter … 8 weeks”) is 5.6 mm. In the experiment with Sarcoma 180 [1], the “N: number of living mice, 8 weeks” value turned out to be 6; the “D: average diameter (mm) of tumor, 10 weeks” value (from here on “D: average diameter … 10 weeks”) worked out at 0 mm; the “N: number of living mice, 10 weeks” value turned out to be 6.
In the case of `CCN(CC)C(=O)N1CCN(c2nccs2)CC1` [drawing 15], in the experiment with Sarcoma 180 [2], the “D: average diameter … 2 weeks” value is given as 8.6 mm; the “D: average diameter … 4 weeks” value turned out to be 7.5 mm; the “D: average diameter … 6 weeks” value is given as 6.7 mm; the “D: average diameter … 8 weeks” value was determined as 7.7 mm. Further, in the experiment with Sarcoma 180 [2], the “D: average diameter … 10 weeks” value is given as 0 mm; the “N: number of living mice, 0 weeks” value was determined as 6; the “N: number of living mice, 2 weeks” value is recorded as 6; the “N: number of living mice, 4 weeks” value is recorded as 6. In addition, in the experiment with Sarcoma 180 [2], the “N: number of living mice, 6 weeks” value was 6; the “N: number of living mice, 8 weeks” value stood at 6; the “N: number of living mice, 10 weeks” value stood at 6.
Regarding `CCN(CC)C(=O)N1CCN(c2nc(-c3ccccc3)cs2)CC1` [drawing 14], in the experiment with Sarcoma 180 [2], the “D: average diameter … 2 weeks” value is reported as 5.6 mm; the “D: average diameter … 4 weeks” value came out at 3.5 mm; the “D: average diameter … 6 weeks” value is given as 4.6 mm; the “D: average diameter … 8 weeks” value was determined as 0 mm. In addition, in the experiment with Sarcoma 180 [2], the “D: average diameter … 10 weeks” value is recorded as 0 mm; the “N: number of living mice, 0 weeks” value is recorded as 6; the “N: number of living mice, 2 weeks” value was found to be 6; the “N: number of living mice, 4 weeks” value is given as 6. In addition, in the experiment on Sarcoma 180 [2], the “N: number of living mice, 6 weeks” value is on record as 6; the “N: number of living mice, 8 weeks” value turned out to be 6; the “N: number of living mice, 10 weeks” value came to 6.
Turning to `CCN(CC)C(=O)N1CCN(c2nc(-c3ccccc3)cs2)CC1` [drawing 10], in experiment [3], the “Swelling Ratio (average value ± standard variation, %), 15 days” value was determined as 43.5 ± 13.9%; the “Swelling Ratio (average value ± standard variation, %), 18 days” value is reported as 41.5 ± 12.6%; the “Swelling Ratio (average value ± standard variation, %), 21 days” value is listed as 52.9 ± 11.2%.
In the case of `CCN(CC)C(=O)N1CCN(c2nccs2)CC1` [drawing 11], in experiment [3], the “Swelling Ratio (average value ± standard variation, %), 15 days” value was 60.9 ± 8.0%; the “Swelling Ratio (average value ± standard variation, %), 18 days” value was 59.8 ± 7.8%; the “Swelling Ratio (average value ± standard variation, %), 21 days” value was 50.5 ± 10.0%.
On to `CCN(CC)C(=O)N1CCN(c2nc(-c3ccccc3)cs2)CC1` [drawing 16], for which, in the experiment on Sarcoma 180 [1], the “N: number of living mice, 0 weeks” value is reported as 6; the “D: average diameter … 2 weeks” value was 2.6 mm; the “N: number of living mice, 2 weeks” value is 6; the “D: average diameter … 4 weeks” value worked out at 3.5 mm. Also, in the experiment with Sarcoma 180 [1], the “N: number of living mice, 4 weeks” value came to 6; the “D: average diameter … 6 weeks” value turned out to be 6.5 mm; the “N: number of living mice, 6 weeks” value came to 6; the “D: average diameter … 8 weeks” value is given as 0.6 mm. Further, in the experiment with Sarcoma 180 [1], the “N: number of living mice, 8 weeks” value is given as 6; the “D: average diameter … 10 weeks” value came to 0 mm; the “N: number of living mice, 10 weeks” value turned out to be 6.
